Test results: patent US20090048287A1, “Compositions useful for treating gastrointestinal motility disorders” (priority 2003, published 2009)

Columns and labels:
Type in all cases: in vivo, cat
feline model of GERD [1] = experiment: Lower esophageal sphincter pressure (LESP), manometric recording in sedated cats; conditions: MKC-733 1.0 and 10 mg/kg i.v., naive and omeprazole pretreated, FIG. 2
Procedure: (§1) Experiments to determine the effects of MKC-733, omeprazole or the combination of MKC-733 and omeprazole on LESP, lower esophageal pH, esophageal motility and TLESR, in a feline model of GERD were conducted.
The cats used in the experiments were fasted overnight and sedated with ketamine (15-20 mg/kg intramuscular injection). A butterfly catheter filled with heparinized sterile saline was placed into the brachial vein and used for supplemental ketamine anesthesia and drug administration.
Each animal was fitted with a water-perfused sleeve catheter (Andorfer Inc, Greendale, Wis.) attached via pressure transducers to a minimally compliant hydrolytic pump. […] This 4 cm region was referred to as site 1 and the pressure was simultaneously recorded along this region. […] Throughout the experiment, the output from the pressure transducers was manometrically recorded using the PowerLab Chart 5 data acquisition program (ADInstruments, Colorado Springs, Colo.) on a computer using a Windows XP operating system.
The manometric pressure recording at site 1 of the catheter provided the baseline (at rest) LESP for each animal. The baseline LESP was recorded for each measurement regimen set forth in Experiments 1 and 2 below, and then compared. […]
(§2) Following instrumentation, baseline values of LESP, esophageal pH, esophageal peristalsis and TLESR were measured as described above. […]

feline model of GERD [2] = experiment: Lower esophageal pH monitoring during gastroesophageal reflux in sedated cats; conditions: naive, MKC-733 1.0 and 10 mg/kg i.v.
Procedure: as §1
An Orion II pH probe (Medical Measurements Systems), running along with the manometric catheter, was positioned with one pH measuring site in the stomach and a second pH measuring site in the distal esophagus. pH was monitored and recorded simultaneously with the manometric recordings using a computerized data acquisition system (Medical Measurements Systems).
The pH in the lower esophagus was monitored at the same time as the manometric pressure. The pH was recorded for each measurement regimen set forth in Experiments 1 and 2.
All animals were acclimated to the facility for one week prior to testing. […]
as §2
Data is presented as mean±SEM. […] Significance of LESP treatment effects within and between experiments was evaluated using 2-Way repeated measures ANOVA. […] Significance of treatment effects for pH was evaluated using a nonparametric one-way repeated measures ANOVA (Friedman Test). […]
In 2 of the 5 animals, the 10 mg/kg dose was not administered. In 1 of the 3 remaining animals, pH was also not recorded following the […] dose.

feline model of GERD [3] = experiment: Esophageal motility: peristaltic contraction amplitude after spontaneous dry swallows and balloon distension in cats
Procedure: as §1
Each animal was fitted with a water-perfused sleeve catheter (Andorfer Inc, Greendale, Wis.) attached via pressure transducers to a minimally compliant hydrolytic pump. The sleeve was positioned within the LES with the tip placed into the stomach. The total distance between recording site 0 (tip in the stomach) and recording site 2 was 4 cm. This 4 cm region was referred to as site 1 and the pressure was simultaneously recorded along this region. […] Throughout the experiment, the output from the pressure transducers was manometrically recorded using the PowerLab Chart 5 data acquisition program (ADInstruments, Colorado Springs, Colo.) on a computer using a Windows XP operating system.
The manometric pressure recordings at sites 1-5 of the sleeve catheter were recorded during primary peristalsis induced by three spontaneous dry swallows (SDS) and secondary peristalsis induced by 3 balloon distensions (BD; distension of a balloon catheter 2 cm in diameter for 5 second placed in the mid portion of the esophagus).
Esophageal motility was characterized based on the amplitude of the contractions recorded at sites 2-5 of the catheter in response to three SDS and three BD. […]

## O=C(N[C@H]1CN2CCC1CC2)c1c[nH]c2ccsc2c1=O [MKC-733, (R)—N-1-azabicyclo[2.2.2]oct-3-yl-4,7-dihydro-7-oxothieno[3,2-b]pyridine-6-carboxamide]
Feline model of GERD [1]
  LESP normalized to vehicle controls within experiments: statistically significant dose-dependent increase in LESP
Feline model of GERD [2]; FIG. 3
  percentage of time during gastroesophageal (GER) episodes when lower esophageal pH was greater than 4.0: positive trend that appeared dose-dependent
Feline model of GERD [2]; FIG. 4
  nadir pH values during GER: did not effect nadir pH values
Feline model of GERD [3]; MKC-733 1.0 and 10 mg/kg i.v., normalized to vehicle, FIG. 5
  oral-to-aboral peristaltic contraction amplitude: dose-dependent significant enhancement
Feline model of GERD [3]; MKC-733 i.v., data not shown
  difference in effect on peristaltic contraction amplitude between naive cats and those pretreated with omeprazole: no significant differences
